# Data published in patent publication US20130158362A1 (INFACARE PHARMACEUTICAL CORPORATION, priority 2011, published 2013).
# “And” between values parts separate entries of the source, which are not always exact repeats. Equal values may be shown once. “Also recorded” adds a separate entry of the source. Marks after values point to notes of the source that are not given here.
# Tests used:
# Assay type in all cases: in vivo, human
# [1] = Phase 2b trial: pharmacokinetics of stannsoporfin in plasma after IM injection
# Text: Pharmacokinetic Assessments: Subjects were stratified into 2 groups having different sampling times to better characterize the PK curves.
# [2] = system: term and late preterm subjects with hyperbilirubinemia; assay: Phase 2b trial: adverse events
# Text: (§1) Safety measurements included adverse events (AEs), hematology and chemistry laboratory tests, vital sign measurements, physical examinations, dermatological assessments, hearing assessments, ophthalmological assessments, neurological assessments, and quantitative electrocardiograms (ECGs).
# Safety population: Defined as all subjects who were enrolled in the clinical study and received IMP. Subjects were summarized according to the treatment received.
# Analysis of Safety Parameters: Descriptive statistical methods were used to summarize safety parameters based on the safety population. All treatment-emergent adverse events (TEAEs) were summarized. Tabular summaries were also presented for all TEAEs considered potentially related to the IMP, TEAEs by intensity, serious adverse events (SAEs), and AEs leading to discontinuation.
# [3] = system: term and late preterm subjects with hyperbilirubinemia; assay: Phase 2b trial: hematology and chemistry laboratory tests (platelet counts); conditions: for Platelet counts (mean), Delta: baseline to 48 hours
# Text: as §1
# All other safety endpoints (vital sign measurements, hematology and chemistry laboratory tests, physical examination results, ECG results, etc.) were summarized by treatment group and visit. In addition, shift tables were generated for laboratory results comparing postbaseline results with baseline. Similar shift tables were generated for results of vital sign measurements.
# [4] = system: term and late preterm subjects with hyperbilirubinemia; assay: Phase 2b trial: dermatological assessment (rash)
# Text: In some embodiments, dermatological examinations comprise the identification of photosensitive reactions if any. Photosensitive reaction may occur with metalloporphyrins and broad spectrum light. Photosensitive reactions include skin rashes.
# as §1
# [5] = 4.5 mg dose, baseline to 48 hours post dose
substance,measurement,setting,value
tin IV mesoporphyrin IX dichloride [Stannsoporfin],T1/2,[1]; 1.5 mg/kg IM,5.46 h
same,Tmax,[1]; 1.5 mg/kg IM,1.87 h
same,T1/2,[1]; 3.0 mg/kg IM,10.7 h
same,Tmax,[1]; 3.0 mg/kg IM,1.52 h
same,T1/2,[1]; 4.5 mg/kg IM,9.86 h
same,Tmax,[1]; 4.5 mg/kg IM,2.3 h
same,"T1/2, Mean of the three doses","[1]; 1.5, 3.0 and 4.5 mg/kg IM",8.6 h
same,"Tmax, Mean of the three doses","[1]; 1.5, 3.0 and 4.5 mg/kg IM",1.89 h
same,increase in Cmax with dose,[1]; 1.5 to 4.5 mg/kg dose range,dose-proportional increase
same,elimination half-life,"[1]; IM injection, final data",approximately 10 hours
same,time of peak plasma concentrations post-treatment,"[1]; IM injection, final data",≤ 1 h
same,time plasma stannsoporfin concentrations measurable post treatment,[1]; all subjects at doses of 3 mg/kg and above,at least 48 hours
same,intersubject variability in Cmax and AUCs,"[1]; neonates, IM",≤ 30%
same,"# of subjects one AE, n (%)",[2]; 1.5 mg/kg IM,8 (47.1%)
same,"AE Anal Abscess: subjects, n (%)",[2]; 1.5 mg/kg IM,0
same,"AE Anemia: subjects, n (%)",[2]; 1.5 mg/kg IM,0
same,"AE Bradycardia: subjects, n (%)",[2]; 1.5 mg/kg IM,0
same,"AE CO2 decreased: subjects, n (%)",[2]; 1.5 mg/kg IM,0
same,"AE CRP increased: subjects, n (%)",[2]; 1.5 mg/kg IM,1 (5.9%)
same,"AE Contusion: subjects, n (%)",[2]; 1.5 mg/kg IM,1 (5.9%)
same,"AE Depressed level consciousness: subjects, n (%)",[2]; 1.5 mg/kg IM,0
same,"AE Diaper dermatitis: subjects, n (%)",[2]; 1.5 mg/kg IM,2 (11.8%)
same,"AE Erythema toxicum: subjects, n (%)",[2]; 1.5 mg/kg IM,0
same,"AE Erythema: subjects, n (%)",[2]; 1.5 mg/kg IM,0
same,"AE Flushing: subjects, n (%)",[2]; 1.5 mg/kg IM,0
same,"AE Hemangioma: subjects, n (%)",[2]; 1.5 mg/kg IM,1 (5.9%)
same,"AE Hemoglobin increased: subjects, n (%)",[2]; 1.5 mg/kg IM,0
same,"AE Hyperbilirubinemia: subjects, n (%)",[2]; 1.5 mg/kg IM,2 (11.8%)
same,"AE Jaundice: subjects, n (%)",[2]; 1.5 mg/kg IM,5 (29.4%)
same,"AE Leukocytosis: subjects, n (%)",[2]; 1.5 mg/kg IM,0
same,"AE Meningitis: subjects, n (%)",[2]; 1.5 mg/kg IM,0
same,"AE Oral Candidiasis: subjects, n (%)",[2]; 1.5 mg/kg IM,0
same,"AE Rash neonatal: subjects, n (%)",[2]; 1.5 mg/kg IM,0
same,"AE Rash papular: subjects, n (%)",[2]; 1.5 mg/kg IM,0
same,"AE Rash: subjects, n (%)",[2]; 1.5 mg/kg IM,1 (5.9%)
same,"AE Seborrhoeic dermatitis: subjects, n (%)",[2]; 1.5 mg/kg IM,0
same,"AE Serum Glucose decreased: subjects, n (%)",[2]; 1.5 mg/kg IM,0
same,"AE Serum sodium increased: subjects, n (%)",[2]; 1.5 mg/kg IM,0
same,"AE Skin exfoliation: subjects, n (%)",[2]; 1.5 mg/kg IM,1 (5.9%)
same,"AE Thrombocytopenia: subjects, n (%)",[2]; 1.5 mg/kg IM,0
same,"AE Umbilical Hernia: subjects, n (%)",[2]; 1.5 mg/kg IM,0
same,"AE Vomiting: subjects, n (%)",[2]; 1.5 mg/kg IM,0
same,Total AEs,"[2]; 1.5 mg/kg IM, N = 17",17
same,"# of subjects one AE, n (%)",[2]; 3.0 mg/kg IM,10 (55.6%)
same,"AE Anal Abscess: subjects, n (%)",[2]; 3.0 mg/kg IM,1 (5.6%)
same,"AE Anemia: subjects, n (%)",[2]; 3.0 mg/kg IM,1 (5.6%)
same,"AE Bradycardia: subjects, n (%)",[2]; 3.0 mg/kg IM,0
same,"AE CO2 decreased: subjects, n (%)",[2]; 3.0 mg/kg IM,1 (5.6%)
same,"AE CRP increased: subjects, n (%)",[2]; 3.0 mg/kg IM,0
same,"AE Contusion: subjects, n (%)",[2]; 3.0 mg/kg IM,0
same,"AE Depressed level consciousness: subjects, n (%)",[2]; 3.0 mg/kg IM,0
same,"AE Diaper dermatitis: subjects, n (%)",[2]; 3.0 mg/kg IM,1 (5.6%)
same,"AE Erythema toxicum: subjects, n (%)",[2]; 3.0 mg/kg IM,3 (16.7%)
same,"AE Erythema: subjects, n (%)",[2]; 3.0 mg/kg IM,1 (5.6%)
same,"AE Flushing: subjects, n (%)",[2]; 3.0 mg/kg IM,1 (5.6%)
same,"AE Hemangioma: subjects, n (%)",[2]; 3.0 mg/kg IM,0
same,"AE Hemoglobin increased: subjects, n (%)",[2]; 3.0 mg/kg IM,0
same,"AE Hyperbilirubinemia: subjects, n (%)",[2]; 3.0 mg/kg IM,1 (5.6%)
same,"AE Jaundice: subjects, n (%)",[2]; 3.0 mg/kg IM,0
same,"AE Leukocytosis: subjects, n (%)",[2]; 3.0 mg/kg IM,0
same,"AE Meningitis: subjects, n (%)",[2]; 3.0 mg/kg IM,0
same,"AE Oral Candidiasis: subjects, n (%)",[2]; 3.0 mg/kg IM,0
same,"AE Rash neonatal: subjects, n (%)",[2]; 3.0 mg/kg IM,1 (5.6%)
same,"AE Rash papular: subjects, n (%)",[2]; 3.0 mg/kg IM,0
same,"AE Rash: subjects, n (%)",[2]; 3.0 mg/kg IM,0
same,"AE Seborrhoeic dermatitis: subjects, n (%)",[2]; 3.0 mg/kg IM,1 (5.6%)
same,"AE Serum Glucose decreased: subjects, n (%)",[2]; 3.0 mg/kg IM,1 (5.6%)
same,"AE Serum sodium increased: subjects, n (%)",[2]; 3.0 mg/kg IM,1 (5.6%)
same,"AE Skin exfoliation: subjects, n (%)",[2]; 3.0 mg/kg IM,0
same,"AE Thrombocytopenia: subjects, n (%)",[2]; 3.0 mg/kg IM,0
same,"AE Umbilical Hernia: subjects, n (%)",[2]; 3.0 mg/kg IM,1 (5.6%)
same,"AE Vomiting: subjects, n (%)",[2]; 3.0 mg/kg IM,0
same,Total AEs,"[2]; 3.0 mg/kg IM, N = 18",16
same,serious adverse event Anemia: Outcome,"[2]; 3.0 mg/kg, Rh incompatibility, required transfusion",Resolved
same,"# of subjects one AE, n (%)",[2]; 4.5 mg/kg IM,3 (37.5%)
same,"AE Anal Abscess: subjects, n (%)",[2]; 4.5 mg/kg IM,0
same,"AE Anemia: subjects, n (%)",[2]; 4.5 mg/kg IM,1 (12.5%)
same,"AE Bradycardia: subjects, n (%)",[2]; 4.5 mg/kg IM,1 (12.5%)
same,"AE CO2 decreased: subjects, n (%)",[2]; 4.5 mg/kg IM,0
same,"AE CRP increased: subjects, n (%)",[2]; 4.5 mg/kg IM,0
same,"AE Contusion: subjects, n (%)",[2]; 4.5 mg/kg IM,0
same,"AE Depressed level consciousness: subjects, n (%)",[2]; 4.5 mg/kg IM,1 (12.5%)
same,"AE Diaper dermatitis: subjects, n (%)",[2]; 4.5 mg/kg IM,0
same,"AE Erythema toxicum: subjects, n (%)",[2]; 4.5 mg/kg IM,0
same,"AE Erythema: subjects, n (%)",[2]; 4.5 mg/kg IM,1 (12.5%)
same,"AE Flushing: subjects, n (%)",[2]; 4.5 mg/kg IM,0
same,"AE Hemangioma: subjects, n (%)",[2]; 4.5 mg/kg IM,0
same,"AE Hemoglobin increased: subjects, n (%)",[2]; 4.5 mg/kg IM,1 (12.5%)
same,"AE Hyperbilirubinemia: subjects, n (%)",[2]; 4.5 mg/kg IM,0
same,"AE Jaundice: subjects, n (%)",[2]; 4.5 mg/kg IM,0
same,"AE Leukocytosis: subjects, n (%)",[2]; 4.5 mg/kg IM,1 (12.5%)
same,"AE Meningitis: subjects, n (%)",[2]; 4.5 mg/kg IM,1 (12.5%)
same,"AE Oral Candidiasis: subjects, n (%)",[2]; 4.5 mg/kg IM,0
same,"AE Rash neonatal: subjects, n (%)",[2]; 4.5 mg/kg IM,0
same,"AE Rash papular: subjects, n (%)",[2]; 4.5 mg/kg IM,0
same,"AE Rash: subjects, n (%)",[2]; 4.5 mg/kg IM,0
same,"AE Seborrhoeic dermatitis: subjects, n (%)",[2]; 4.5 mg/kg IM,0
same,"AE Serum Glucose decreased: subjects, n (%)",[2]; 4.5 mg/kg IM,0
same,"AE Serum sodium increased: subjects, n (%)",[2]; 4.5 mg/kg IM,0
same,"AE Skin exfoliation: subjects, n (%)",[2]; 4.5 mg/kg IM,0
same,"AE Thrombocytopenia: subjects, n (%)",[2]; 4.5 mg/kg IM,1 (12.5%)
same,"AE Umbilical Hernia: subjects, n (%)",[2]; 4.5 mg/kg IM,0
same,"AE Vomiting: subjects, n (%)",[2]; 4.5 mg/kg IM,0
same,Total AEs,"[2]; 4.5 mg/kg IM, N = 8",8
same,serious adverse event Meningitis: Outcome,"[2]; 4.5 mg/kg, negative cultures",Resolved
same,subjects who experienced at least 1 TEAE,[2]; each treatment group,Greater than 30%
same,"incidence of TEAEs, 3 stannsoporfin treatment groups versus placebo",[2]; final data,no statistically significant differences
same,Platelet counts (mean),"[3]; 1.5 mg/kg IM, 48 hours",234.000
same,Platelet counts (mean),"[3]; 1.5 mg/kg IM, Day 14","477,000"
same,"Platelet counts (mean), Delta",[3]; 1.5 mg/kg IM,"−31,000"
same,Platelet counts (mean),"[3]; 3.0 mg/kg IM, 48 hours","220,000"
same,Platelet counts (mean),"[3]; 3.0 mg/kg IM, Day 14","453,000"
same,"Platelet counts (mean), Delta",[3]; 3.0 mg/kg IM,"−43,000"
same,"Platelet count, individual subjects, % Change",[3]; [5],68.6% and 47.1% and 60.8% and 2.9% and 8.4% and 41.0%
same,"Platelet count, individual subjects, Delta",[3]; [5],"−153,000 and −113,000 and −141,000 and −11,000 and −22,000 and −128,000"
same,Platelet counts (mean),"[3]; 4.5 mg/kg IM, 48 hours","180,000"
same,Platelet counts (mean),"[3]; 4.5 mg/kg IM, Day 14","441,000"
same,"Platelet counts (mean), Delta",[3]; 4.5 mg/kg IM,"−85,000"
same,"Platelet count, individual subjects","[3]; 4.5 mg/kg dose, 48 hours post dose (n = 6)","70,000* and 127,000† and 91,000** and 368,000 and 240,000 and 184,000†"
same,platelets at 48 hours,"[3]; 4.5 mg/kg, all subjects, normalized by Day 14",moderate drops in platelets
same,"Chemistries, liver function tests and renal function tests",[3]; 1.5 to 4.5 mg/kg IM,normal
same,Platelet counts from baseline to 48 hours after administration,"[3]; all stannsoporfin doses, placebo remained stable",decreased
same,average platelet counts by day 14,[3]; all test groups,returned to the normal range
same,"Rash and PT, n (% of those with a rash)",[4]; 1.5 mg/kg IM,2 (66.7%)
same,"Subjects with any rash, n (%)",[4]; 1.5 mg/kg IM,3 (17.6%)
same,types of rashes observed,[4]; 1.5 mg/kg IM,Contusion; also recorded: Diaper Dermatitis; also recorded: PT Induced rash*; also recorded: Desquamation; also recorded: Contact Dermatitis
same,"Rash and PT, n (% of those with a rash)",[4]; 3.0 mg/kg IM,3 (37.5%)
same,"Subjects with any rash, n (%)",[4]; 3.0 mg/kg IM,8 (44.4%)
same,types of rashes observed,[4]; 3.0 mg/kg IM,Neonatal Acne; also recorded: Erythema; also recorded: Seborrhea; also recorded: Diaper rash; also recorded: Flushing
same,"Rash and PT, n (%)",[4]; 4.5 mg/kg IM,1 (12.5%)
same,"Subjects with any rash, n (%)",[4]; 4.5 mg/kg IM,1 (13.3%)
same,types of rashes observed,[4]; 4.5 mg/kg IM,Erythema **
